# Experimental data taken from publication PMC3998711 (Nature chemical biology, 2014).
# Where two headings read alike, the source gives them in different places.
# Assays:
# c-Myc [1] = test: Western blot analysis of cellular c-Myc levels in MM.1S cells; assay type: cell-based, human; settings: 6 h; for IC50: Homo sapiens, MM1.S, read-out: IC50 for c-Myc suppression; for c-Myc levels (western blot): MM.1S cells, inhibitor 5 μM
# [2] = target: first bromodomain of BRD4, BRD4(1) (Homo sapiens, UniProt O60885); test: AlphaScreen assay; assay type: binding; settings: described in words
# BRD4(1) = BRD4(1) (Homo sapiens, UniProt O60885); test: Isothermal titration calorimetry; assay type: binding; settings: ITC, 15 °C, 50 mM HEPES, 150 mM NaCl
# RSK family kinase = test: Kinome-wide profiling, RSK family; settings: read-out: Kds, RSK family; kinome-wide data
# PLK family = test: Kinome-wide profiling, PLK family
# MV4-11 AML cells = test: MV4-11 proliferation assay; assay type: cell-based, human; settings: read-out: IC50, proliferation of MV4-11 AML cells
# c-Myc [3] = test: Western blot of c-Myc levels in Molm14 cell lines; assay type: cell-based, human; settings: FLT3 inhibitor-sensitive and -resistant lines, 6 h
# [4] = tested on: MM.1S multiple myeloma cells; test: MM.1S proliferation assay; assay type: cell-based; settings: Homo sapiens, MM1.S, 72 h, read-out: IC50, MM.1S proliferation
# [5] = tested on: 12 primary human cell-based BioMAP systems; test: BioMAP primary human cell disease model assay systems
smiles,measurement,setting,value
CC[C@@H]1C(=O)N(C)c2cnc(Nc3ccc(C(=O)NC4CCN(C)CC4)cc3OC)nc2N1C1CCCC1 [BI-2536],IC50,c-Myc [1],~100 nM
same,c-Myc levels (western blot),c-Myc [1],strong c-Myc down regulation
CC(C)CCN1c2nc(Nc3cc(F)c(O)c(F)c3)ncc2N(C)C(=O)C1C (stereo not shown) [BI-D1870],AlphaScreen dose response IC50,[2],nanomolar
same,Kd,BRD4(1),3500 ± 170 nM
same,Kd,RSK family kinase,10 to 100 nM
same,PLK family potencies lower than for BI-2536,PLK family,10–100 fold
same,Kd,"PLK family; read-out: Kds, PLK family, kinome-wide data",~10 nM
C[C@@H](Oc1cc(-n2cnc3ccc(CN4CCN(C)CC4)cc32)sc1C(N)=O)c1ccccc1C(F)(F)F [GSK-461364A],c-Myc levels (western blot),c-Myc [1],did not affect c-Myc levels
COc1cc2c(cc1-c1c(C)noc1C)ncc1[nH]c(=O)n([C@H](C)c3ccccn3)c12 [I-BET],IC50,MV4-11 AML cells; 72 h,200 nM
Cc1sc2c(c1C)C(c1ccc(Cl)cc1)=N[C@@H](CC(=O)OC(C)(C)C)c1nnc(C)n1-2 [JQ1],IC50,MV4-11 AML cells; 72 h,28 nM
same,c-Myc expression in Molm14 cell lines,c-Myc [3],inhibits c-Myc expression with similar potencies
CN(c1ccccc1CNc1nc(Nc2ccc3c(c2)CC(=O)N3)ncc1C(F)(F)F)S(C)(=O)=O [PF-431396],Kd,BRD4(1); error of the fit,445 ± 42 nM
Cc1cnc(Nc2ccc(OCCN3CCCC3)cc2)nc1Nc1cccc(S(=O)(=O)NC(C)(C)C)c1 [TG-101348],IC50,c-Myc [1],1000 to 3000 nM
same,c-Myc levels (western blot),c-Myc [1],strong c-Myc down regulation
same,IC50,[4],1000 to 3000 nM
same,"production of TNFα, MIG and IL-8",[5],inhibited
N#CC[C@H](C1CCCC1)n1cc(-c2ncnc3[nH]ccc23)cn1 [ruxolitinib],c-Myc levels (western blot),c-Myc [1],did not affect c-Myc levels
same,IC50,"MV4-11 AML cells; Homo sapiens, MV4-11, 72 h",~10000 nM
C[C@@H]1CCN(C(=O)CC#N)C[C@@H]1N(C)c1ncnc2[nH]ccc12 [tofacitinib],c-Myc levels (western blot),c-Myc [1],did not affect c-Myc levels
